Test system: aging-accelerated model mice (SAMP10)
Experiment: Endurance evaluation test on treadmill, mean running distance (Example 4)
Format: in vivo
Procedure: In this example, we evaluated exercise in aging-accelerated model mice when SV peptide was administered continuously.
Aging-accelerated model mice (SAMP10 28 weeks old) were trained on a treadmill (MK-680; Muromachi Kikai Co., Ltd.) (18 m/min×90 min) and subsequent SV peptide administration was performed according to the schedule in the following table. After 30 weeks of age, training was performed continuously from Monday to Friday of each week. SV peptides were added to PBS to adjust to a concentration of 1 μg/ml or 20 ng/ml for injection formulation. Localized injections were made into the bilateral leg muscles of each mouse anesthetized by inhalation with sevoflurane immediately after training on Tuesday and Friday (SV group). Exercise evaluations were performed after SV peptide localization on Friday.
Exercise evaluations were conducted for endurance evaluation, in which the belt speed on the treadmill was increased incrementally at regular intervals, and for slope-up evaluation, in which the belt incline was increased incrementally at regular intervals. […] In the PBS group as the control group, PBS was localized to the bilateral lower limb muscles instead of SV peptide after training on the treadmill in the same manner as in the SV group.
The results of the endurance evaluation test are shown in FIG. 5 as a graph of the percent change in mean running distance. […] The mean running distance for each group was calculated as the mean value of running distance calculated based on the running time and speed of each mouse in each group (the mean distance was calculated in the same manner hereinafter). […] In the SVN group (SVN group) in which SV peptide was administered at the same site and at the same dose as in the SV group without training on the treadmill, the rate of change in mean running distance was measured.

SVVYGLR [SV peptide, peptide consisting of 7 amino acids (SVVYGLR]
mean running distance compared to the reference date (SV group (training and SV peptide), during the measurement period, reference date 30 weeks): increased compared to that at the reference date
rate of change of the mean running distance (SV group (training performed and SV peptide injected, 1 μg/ml or 20 ng/ml, 2 times/W), mean running distance at 30 weeks (reference date) = 100%, FIG. 5): about 130%
mean running distance over time (SVN group: SV peptide at same site and dose without training on the treadmill, not shown in the figure): decreased over time
rate of change in mean running distance (SVN group: SV peptide without training on the treadmill, since the reference date (30 weeks = 100%)): ≤ 100%

Source: patent US20230381275A1, “MUSCULAR FUNCTION IMPROVING AGENT FOR SKELETAL MUSCLE OF WHICH FUNCTION IS DEGRADED DUE TO AGING” (OSAKA UNIVERSITY, priority 2020, published 2023)
